Test results reported in patent US20240239788A1, “SMALL MOLECULE INHIBITORS OF KRAS G12D MUTANT” (Merck Sharp & Dohme LLC, priority 2021, published 2024).
Where two headings read alike, the source gives them in different places.

Columns and labels:
[1] = molecular target: KRAS protein containing G12D mutation (Homo sapiens (Human), UniProt P01116, G12D); assay: SOS-catalyzed nucleotide exchange assay (GNE), TR-FRET; format: biochemical; conditions: biotinylated KRAS G12D, SOS and GTP, 60-minute incubation
Procedure: Compounds are added to this complex and then after a 60-minute incubation time the mixture is treated with SOS and unlabeled GTP. Small molecule inhibitors stabilize the Bodipy-GDP complex whereas the untreated protein rapidly exchanges Bodipy-GDP for unlabeled GTP resulting in reduced TR-FRET signal.
This solution is referred to as biotinylated KRAS G12D stock solution.

[2] = test system: AsPC-1 cells containing homozygous KRAS-G12D activating mutation; assay: Cellular phospho-ERK assay (Examples 1a-106); format: cell-based; conditions: AsPC-1 cells, 2 hours, ratio of p-Erk vs total Erk, read-out: IC50 (nM) pERK (Cell)
Excerpt: 5% CO? overnight. […] Assay plates were read on a EnVision Multimode Plate Reader (PerkinElmer) and the ratio of p-Erk vs total Erk in each well was used as the final readout.

[3] = molecular target: KRAS G12D / Ras binding domain of C-RAF (Homo sapiens (Human), UniProt P01116, G12D); assay: RAS:RAF-RBD binding assay (cRaf), TR-FRET; conditions: biotinylated KRAS G12D, GST-C-RAF RBD
Chain of KRAS G12D / Ras binding domain of C-RAF (P01116 other isoform, or with tags, fused parts or gaps G12D (already in the parent)): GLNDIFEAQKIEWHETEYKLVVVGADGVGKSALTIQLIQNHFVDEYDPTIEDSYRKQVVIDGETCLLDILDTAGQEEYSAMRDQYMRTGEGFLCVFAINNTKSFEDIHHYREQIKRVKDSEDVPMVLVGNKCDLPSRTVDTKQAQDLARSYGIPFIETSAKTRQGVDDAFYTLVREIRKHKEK
Procedure: Compounds are added to KRAS and then after a 30-minute incubation time the RAF-RBD and detection antibodies are added. Small molecule inhibitors that block the interaction of c-RAF-RBD prevent generation of a TR-FRET signal.
Biotinylated KRAS G12D protein is diluted to 20 nM in assay buffer (20 mM HEPES pH 7.5, 150 mM sodium chloride, 10 mM magnesium chloride, and 0.01% Tween20).
Each test compound (10 mM stock in DMSO) is diluted in DMSO to make a 10-point, 3-fold dilution series in a 384-well low dead volume microplate (Labcyte, catalog #LP-0200).
Each well of the assay plate receives 5 μL of Biotinylated KRAS G12D assay solution and is incubated at room temperature for 30 minutes. Each well then receives 5 μL of 100 nM GST-C-RAF RBD protein and a 1:100 dilution of both anti-GST-d2 (Cisbio catalog #61GSTDLA) and Streptavidin-Tb cryptate (Cisbio catalog #610SATLA) in assay buffer and the plate is mixed and briefly centrifuged followed by a 60 minute incubation at room temperature.
The apparent effect as a function of compound concentration is fit to a four-parameter logistic equation.

Chain of KRAS protein containing G12D mutation (P01116 other isoform, or with tags, fused parts or gaps G12D (already in the parent)): as above

SMILES | IC50 [1] [nM] | IC50 ([2]; Homo sapiens, ASPC1, 2 h) [nM] | IC50 ([3]; IC50 (nM) (cRaf)) | IC50 [2] [nM] | IC50 ([3]; read-out: IC50 (nM) (cRaf))
CN(C)CC1(COc2nc(N3CC4CC[C@@](C)(C3)N4)c3cc(Cl)c(-c4cc(O)cc5ccccc45)c(F)c3n2)CC1 [Example 35, 4-(6-chloro-2-((1-((dimethylamino)meth-yl)cyclopro-pyl)methoxy)-8-fluoro-4-((1S,5R)-1-methyl-3,8-diaza-bicyclo[3.2.1]octan-3-yl)quinazolin-7-yl)naphthalen-2-ol] | 27.3 | 2260 | 1890 | – | –
CN(C)CC1(COc2nc(N3CC4CCC(CC#N)(C3)N4)c3cc(Cl)c(-c4cc(O)cc5ccccc45)c(F)c3n2)CC1 (stereo not drawn) [Example 36, 2-(3-(6-chloro-2-((1-((dimethylamino)meth-yl)cyclopro-pyl)methoxy)-8-fluoro-7-(3-hydroxy-naphthalen-1-yl)quinazolin-4-yl)-3,8-diazabicyclo[3.2.1]oc-tan-1-yl)acetonitrile] | 4680 | 46400 | 50000 | – | –
CC[C@H]1N[C@H]2CC[C@@H]1N(c1nc(OCC3(CN(C)C)CC3)nc3c(F)c(-c4cc(O)cc5ccccc45)c(Cl)cc13)C2 [Example 39, 4-(6-chloro-2-((1-((dimethylamino)methyl)cyclopropyl)methoxy)-4-((1S,4S,6R)-6-ethyl-2,5-diazabicyclo[2.2.2]octan-2-yl)-8-fluoroquinazolin-7-yl)naphthalen-2-ol] | 46.7 | 3310 | 4670 | – | –
CN(C)CC1(COc2nc(N3CC4CCC(C3)N4)c3cc(Cl)c(-c4cc(O)ccc4[Si](C)(C)C)c(F)c3n2)CC1 [Example 45, 3-(4-(3,8-diazabicyclo[3.2.1]octan-3-yl)-6-chloro-2-((1-((dimethylamino)methyl)cyclopropyl)methoxy)-8-fluoroquinazolin-7-yl)-4-(trimethylsilyl)phenol] | 376 | 5470 | 31600 | – | –
Cc1cc(O)cc(-c2c(F)cc3c(N4CC5CCC(C4)N5)nc(OCC4(CN5CCOCC5)CC4)nc3c2F)c1SC(F)(F)F [Example 49, 3-(4-(3,8-diazabicyclo[3.2.1]octan-3-yl)-6,8-difluoro-2-((1-(morpholinomethyl)cyclopropyl)methoxy)quinazolin-7-yl)-5-methyl-4-((trifluoromethyl)thio)phenol] | 184 | 4990 | 24700 | – | –
Nc1ccc2c(F)ccc(-c3c(Cl)cc4c(N5CC6CCC(C5)N6)nc(OCC5(CN6CCOCC6)CC5)nc4c3F)c2n1 [Example 52, 8-(4-(3,8-diazabicyclo[3.2.1]octan-3-yl)-6-chloro-8-fluoro-2-((1-(morpholinomethyl)cyclopropyl)methoxy)quinazolin-7-yl)-5-fluoroquinolin-2-amine] | 132 | 2560 | 3820 | – | –
CN(C)CC1(COc2nc(N3CC4CCC(C3)N4)c3cc(Cl)c(-c4cc(O)c(F)c5ccccc45)c(F)c3n2)CC1 [Example 57, 4-(4-(3,8-diazabicyclo[3.2.1]octan-3-yl)-6-chloro-2-((1-((dimethylamino)methyl)cyclopropyl)methoxy)-8-fluoroquinazolin-7-yl)-1-fluoronaphthalen-2-ol] | 404 | 6850 | 31500 | – | –
Cc1c(Cl)cc2[nH]ncc2c1-c1c(F)cc2c(N3CC4CCC(C3)N4)nc(OCC3(CN(C)C)CC3)nc2c1F [Example 58, 1-(1-(((4-(3,8-diazabicyclo[3.2.1]octan-3-yl)-7-(6-chloro-5-methyl-1H-indazol-4-yl)-6,8-difluoroquinazolin-2-yl)oxy)methyl)cyclopropyl)-N,N-dimethylmethanamine] | 256 | 5900 | 45300 | – | –
Nc1nc2c(-c3c(F)cc4c(N5CC6CCC(C5)N6)nc(OCC5(CN6CC[C@@H](F)C6)CC5)nc4c3F)ccc(F)c2s1 [Example 61] | 38.7 | 7580 | 3350 | – | –
Nc1nc2c(-c3c(Cl)cc4c(N5CC6CCC(C5)N6)nc(OCC5(CN6CCOCC6)CC5)nc4c3F)ccc(F)c2s1 [Example 62, 4-(4-(3,8-diazabicyclo[3.2.1]octan-3-yl)-6-chloro-8-fluoro-2-((1-(morpholinomethyl)cyclopropyl)methoxy)quinazolin-7-yl)-7-fluorobenzo[d]thiazol-2-amine] | 3.83 | 1860 | 334 | – | –
Cc1cc2[nH]ncc2c(-c2c(F)cc3c(N4C[C@H]5CC[C@@H](C4)N5)nc(OCC4(CN(C)C)CC4)nc3c2F)c1Cl [Example 65, 1-(1-(((4-((1R,5S)-3,8-diazabicyclo[3.2.1]octan-3-yl)-7-(5-chloro-6-methyl-1H-indazol-4-yl)-6,8-difluoroquinazolin-2-yl)oxy)methyl)cyclopropyl)-N,N-dimethylmethanamine] | 272 | 2840 | 45700 | – | –
Cc1cc2[nH]ncc2c(-c2c(F)cc3c(N4C[C@H]5CC[C@@](C)(C4)N5)nc(OC[C@@H]4C[C@@H](F)CN4C)nc3c2F)c1C(F)(F)F [Example 67, 6,8-difluoro-2-(((2S,4R)-4-fluoro-1-methylpyrrolidin-2-yl)methoxy)-7-(6-methyl-5-(trifluoromethyl)-H-indazol-4-yl)-4-((1S,5R)-1-methyl-3,8-diazabicyclo[3.2.1]octan-3-yl)quinazoline] | 173 | 2860 | 4040 | – | –
C[C@@]12CC(O)[C@@](C)(CN(c3nc(OC[C@@]45CCCN4C[C@H](F)C5)nc4c(F)c(-c5cc(O)cc6cccc(Cl)c56)c(F)cc34)C1)N2 (stereo partly drawn) [Example 106] | 2.09 | – | – | 76.1 | 49.4
C[C@@]12CC[C@@H](CN(c3nc(OCC4(CN5CC[C@@H](F)C5)CC4)nc4c3CCN(c3cccc5cccc(Br)c35)C4)C1)N2 [compound 94, 7-(8-bromonaphthalen-1-yl)-2-((1-(((R)-3-fluoropyrroli-din-1-yl)methyl)cyclopropyl)methoxy)-4-((1S,5R)-1-methyl-3,8-diazabicyclo[3.2.1]octan-3-yl)-5,6,7,8-tetrahydropyrido[3,4-d]pyrimidine] | 116 | 8470 | 32900 | – | –
C#Cc1cccc2cc(O)cc(-c3c(F)cc4c(N5C[C@]6(C)CC[C@H]5CN6)nc(OC[C@@]56CCCN5C[C@H](F)C6)nc4c3F)c12 [compound 104, 4-(6,8-difluoro-2-(((2R,7aS)-2-fluorotetrahydro-1H-pyrrolizin-7a(5H)-yl)methoxy)-4-((1S,4S)-4-methyl-2,5-diazabicyclo[2.2.2]octan-2-yl)quinazolin-7-yl)-5-ethynylnaphthalen-2-ol] | 1.05 | 11.8 | 5.93 | – | –
